Where two headings read alike, the source gives them in different places.
Columns and labels:
EGFR wildtype (WT) = EGFR wildtype (WT) (Homo sapiens, UniProt P00533); assay: Biochemical EGFR kinase assay (Lance Ultra TR-FRET), wildtype
In short: (§1)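 In this biochemical assay, phosphorylation after a one-hour room-temperature reaction was detected with europium-labelled anti-phosphopeptide antibody at 2 nM final concentration.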

EGFR del19/C797S = EGFR del19/C797S (Homo sapiens, UniProt P00533, C797S/DEL746-750); assay: Biochemical EGFR kinase assay (Lance Ultra TR-FRET), double mutant del19/C797S
In short: as §1

EGFR L858R/C797S = EGFR L858R/C797S (Homo sapiens, UniProt P00533, C797S/L858R); assay: Biochemical EGFR kinase assay (Lance Ultra TR-FRET), double mutant L858R/C797S
In short: as §1

EGFR L858R/T790M/C797S = EGFR L858R/T790M/C797S (Homo sapiens, UniProt P00533, C797S/L858R/T790M); assay: Biochemical EGFR kinase assay (Lance Ultra TR-FRET), triple mutant L858R/T790M/C797S
In short: as §1

EGFR del19/T790M/C797S = EGFR del19/T790M/C797S (Homo sapiens, UniProt P00533, C797S/DEL746-750/T790M); assay: Biochemical EGFR kinase assay (Lance Ultra TR-FRET), triple mutant del19/T790M/C797S
In short: as §1

[1] = IC50 WT (nM) 100 μM ATP, 100 μM ATP
[2] = Km ATP, read-out: IC50 WT (nM) Km ATP
[3] = IC50 del19/C797S (nM) 100 μM ATP, 100 μM ATP
[4] = Km ATP, read-out: IC50 del19/C797S (nM) Km ATP
[5] = IC50 L858R/C797S (nM) 100 μM ATP, 100 μM ATP
[6] = Km ATP, read-out: IC50 L858R/C797S (nM) Km ATP
[7] = IC50 L858R/T790M/C797S (nM) 100 μM ATP, 100 μM ATP
[8] = Km ATP, read-out: IC50 L858R/T790M/C797S (nM) Km ATP
[9] = IC50 del19/T790M/C797S (nM) 100 μM ATP, 100 μM ATP
[10] = Km ATP, read-out: IC50 del19/T790M/C797S (nM) Km ATP

EGFR del19/T790M/C797S, sequence (P00533 with tags, fused parts or gaps DEL746-750/T790M/C797S): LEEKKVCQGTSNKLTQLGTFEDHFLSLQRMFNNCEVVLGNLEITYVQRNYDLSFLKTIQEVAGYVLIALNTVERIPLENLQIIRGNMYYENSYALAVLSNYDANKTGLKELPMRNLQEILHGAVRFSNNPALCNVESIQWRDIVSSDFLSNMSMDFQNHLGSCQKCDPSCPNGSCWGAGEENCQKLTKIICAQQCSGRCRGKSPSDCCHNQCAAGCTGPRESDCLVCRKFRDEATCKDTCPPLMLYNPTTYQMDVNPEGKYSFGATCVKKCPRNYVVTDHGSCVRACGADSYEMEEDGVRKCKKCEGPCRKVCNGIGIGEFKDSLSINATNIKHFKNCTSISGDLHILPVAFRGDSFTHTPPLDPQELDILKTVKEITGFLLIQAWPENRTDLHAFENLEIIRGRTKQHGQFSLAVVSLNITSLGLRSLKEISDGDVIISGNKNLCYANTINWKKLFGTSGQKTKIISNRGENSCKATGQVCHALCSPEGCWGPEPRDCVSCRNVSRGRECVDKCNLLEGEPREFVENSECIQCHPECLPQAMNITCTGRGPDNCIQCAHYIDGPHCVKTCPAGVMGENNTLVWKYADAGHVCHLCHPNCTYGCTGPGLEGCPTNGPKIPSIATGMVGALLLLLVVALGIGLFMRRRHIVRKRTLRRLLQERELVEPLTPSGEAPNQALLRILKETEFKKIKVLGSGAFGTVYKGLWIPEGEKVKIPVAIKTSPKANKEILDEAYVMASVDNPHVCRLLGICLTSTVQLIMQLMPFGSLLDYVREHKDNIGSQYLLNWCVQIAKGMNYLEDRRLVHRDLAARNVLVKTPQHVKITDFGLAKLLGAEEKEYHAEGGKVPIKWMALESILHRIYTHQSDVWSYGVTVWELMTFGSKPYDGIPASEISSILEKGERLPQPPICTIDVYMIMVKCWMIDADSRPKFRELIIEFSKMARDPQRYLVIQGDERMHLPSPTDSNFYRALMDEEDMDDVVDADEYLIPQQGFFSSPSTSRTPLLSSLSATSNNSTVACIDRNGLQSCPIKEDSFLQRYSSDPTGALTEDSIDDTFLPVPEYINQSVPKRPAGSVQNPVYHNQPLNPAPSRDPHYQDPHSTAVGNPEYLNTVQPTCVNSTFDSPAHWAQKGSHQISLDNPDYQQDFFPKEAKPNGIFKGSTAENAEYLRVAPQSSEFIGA
EGFR wildtype (WT), sequence (P00533 25-1210): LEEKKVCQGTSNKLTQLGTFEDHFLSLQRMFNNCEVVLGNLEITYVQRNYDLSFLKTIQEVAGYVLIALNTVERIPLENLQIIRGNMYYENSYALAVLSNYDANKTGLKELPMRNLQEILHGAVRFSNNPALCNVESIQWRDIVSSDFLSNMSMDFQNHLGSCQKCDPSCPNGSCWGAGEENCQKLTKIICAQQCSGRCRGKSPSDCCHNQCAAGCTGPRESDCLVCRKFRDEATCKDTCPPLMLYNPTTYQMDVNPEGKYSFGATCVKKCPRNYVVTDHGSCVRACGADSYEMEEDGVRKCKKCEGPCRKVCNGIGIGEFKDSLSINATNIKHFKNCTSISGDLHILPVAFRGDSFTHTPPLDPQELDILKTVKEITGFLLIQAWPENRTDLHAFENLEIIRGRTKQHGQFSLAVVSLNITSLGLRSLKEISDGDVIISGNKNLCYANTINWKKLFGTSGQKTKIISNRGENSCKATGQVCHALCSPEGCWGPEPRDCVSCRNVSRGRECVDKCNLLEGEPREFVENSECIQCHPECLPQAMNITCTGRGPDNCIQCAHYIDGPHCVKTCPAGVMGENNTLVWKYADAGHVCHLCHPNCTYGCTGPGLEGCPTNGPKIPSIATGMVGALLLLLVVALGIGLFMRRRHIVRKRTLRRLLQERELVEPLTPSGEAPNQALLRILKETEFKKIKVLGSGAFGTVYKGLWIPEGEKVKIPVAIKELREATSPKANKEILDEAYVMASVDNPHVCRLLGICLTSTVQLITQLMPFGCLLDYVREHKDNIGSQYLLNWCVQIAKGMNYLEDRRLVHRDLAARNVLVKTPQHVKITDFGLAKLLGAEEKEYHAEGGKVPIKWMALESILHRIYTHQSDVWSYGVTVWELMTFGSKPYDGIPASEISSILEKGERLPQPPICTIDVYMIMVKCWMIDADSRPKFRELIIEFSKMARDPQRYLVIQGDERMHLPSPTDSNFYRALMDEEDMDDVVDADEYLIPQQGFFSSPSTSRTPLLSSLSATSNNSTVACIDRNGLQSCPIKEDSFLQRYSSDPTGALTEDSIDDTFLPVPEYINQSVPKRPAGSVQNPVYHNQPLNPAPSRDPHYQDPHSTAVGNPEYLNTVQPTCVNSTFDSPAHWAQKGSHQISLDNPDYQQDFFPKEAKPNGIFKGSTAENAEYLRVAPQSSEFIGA
EGFR del19/C797S, sequence (P00533 with tags, fused parts or gaps DEL746-750/C797S): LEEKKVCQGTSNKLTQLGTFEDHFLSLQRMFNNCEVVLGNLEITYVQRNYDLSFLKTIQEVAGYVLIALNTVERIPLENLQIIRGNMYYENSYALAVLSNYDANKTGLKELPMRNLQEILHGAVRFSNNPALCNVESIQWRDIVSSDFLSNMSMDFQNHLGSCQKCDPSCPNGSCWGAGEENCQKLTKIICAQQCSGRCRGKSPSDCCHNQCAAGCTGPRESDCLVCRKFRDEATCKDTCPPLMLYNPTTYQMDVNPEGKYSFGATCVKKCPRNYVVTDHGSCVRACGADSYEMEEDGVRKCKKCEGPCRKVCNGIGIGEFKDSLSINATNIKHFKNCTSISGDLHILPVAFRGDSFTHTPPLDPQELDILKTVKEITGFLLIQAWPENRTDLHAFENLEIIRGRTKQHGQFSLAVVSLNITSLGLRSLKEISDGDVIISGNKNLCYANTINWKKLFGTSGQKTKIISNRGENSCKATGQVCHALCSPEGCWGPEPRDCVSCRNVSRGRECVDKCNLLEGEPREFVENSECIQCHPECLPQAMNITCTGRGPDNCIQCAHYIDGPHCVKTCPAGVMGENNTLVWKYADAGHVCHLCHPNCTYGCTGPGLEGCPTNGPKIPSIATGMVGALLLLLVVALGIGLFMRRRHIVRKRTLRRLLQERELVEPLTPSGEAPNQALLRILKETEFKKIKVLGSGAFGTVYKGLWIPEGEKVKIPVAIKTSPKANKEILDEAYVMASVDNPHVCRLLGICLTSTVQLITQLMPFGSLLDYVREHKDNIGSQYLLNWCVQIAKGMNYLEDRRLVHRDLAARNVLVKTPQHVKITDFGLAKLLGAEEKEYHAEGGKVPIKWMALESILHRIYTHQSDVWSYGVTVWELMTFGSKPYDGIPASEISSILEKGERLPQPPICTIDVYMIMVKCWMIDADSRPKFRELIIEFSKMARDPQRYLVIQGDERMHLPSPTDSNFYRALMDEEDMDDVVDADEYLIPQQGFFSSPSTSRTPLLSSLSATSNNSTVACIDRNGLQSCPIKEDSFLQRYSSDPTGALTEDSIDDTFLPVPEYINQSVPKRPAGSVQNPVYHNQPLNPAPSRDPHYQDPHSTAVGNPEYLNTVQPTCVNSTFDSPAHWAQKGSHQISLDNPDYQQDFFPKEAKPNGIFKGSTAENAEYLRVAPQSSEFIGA
EGFR L858R/C797S, sequence (P00533 25-1210 C797S/L858R): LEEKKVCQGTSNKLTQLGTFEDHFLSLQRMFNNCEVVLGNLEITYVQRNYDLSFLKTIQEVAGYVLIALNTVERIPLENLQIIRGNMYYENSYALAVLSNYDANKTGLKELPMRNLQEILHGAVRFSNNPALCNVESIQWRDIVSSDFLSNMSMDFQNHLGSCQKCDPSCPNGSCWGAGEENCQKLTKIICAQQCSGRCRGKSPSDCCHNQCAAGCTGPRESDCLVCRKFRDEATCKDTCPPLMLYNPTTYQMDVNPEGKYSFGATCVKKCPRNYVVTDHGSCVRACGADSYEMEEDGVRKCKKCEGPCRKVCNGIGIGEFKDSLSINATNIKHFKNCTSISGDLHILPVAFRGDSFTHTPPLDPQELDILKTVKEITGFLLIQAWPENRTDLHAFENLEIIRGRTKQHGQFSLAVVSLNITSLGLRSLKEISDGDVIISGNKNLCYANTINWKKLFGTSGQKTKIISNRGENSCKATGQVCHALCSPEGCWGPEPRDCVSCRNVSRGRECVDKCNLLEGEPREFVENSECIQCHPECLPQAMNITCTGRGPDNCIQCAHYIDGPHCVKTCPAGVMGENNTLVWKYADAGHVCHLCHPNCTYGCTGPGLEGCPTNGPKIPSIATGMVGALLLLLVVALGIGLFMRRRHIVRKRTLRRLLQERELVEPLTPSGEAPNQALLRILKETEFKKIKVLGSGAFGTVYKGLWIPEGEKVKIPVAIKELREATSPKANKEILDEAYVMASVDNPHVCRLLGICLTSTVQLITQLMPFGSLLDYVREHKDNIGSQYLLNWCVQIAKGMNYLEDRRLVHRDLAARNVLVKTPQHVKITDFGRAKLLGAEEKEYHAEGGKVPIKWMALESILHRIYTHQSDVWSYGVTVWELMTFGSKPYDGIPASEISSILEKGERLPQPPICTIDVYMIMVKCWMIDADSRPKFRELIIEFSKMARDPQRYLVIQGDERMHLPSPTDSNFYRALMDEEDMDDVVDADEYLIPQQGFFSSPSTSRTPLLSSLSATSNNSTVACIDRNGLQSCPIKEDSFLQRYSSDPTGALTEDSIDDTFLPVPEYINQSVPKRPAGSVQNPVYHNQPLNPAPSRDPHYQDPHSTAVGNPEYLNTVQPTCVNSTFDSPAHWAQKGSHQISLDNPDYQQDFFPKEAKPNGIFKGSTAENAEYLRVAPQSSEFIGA

IC50 (EGFR wildtype (WT); [1])	IC50 (EGFR wildtype (WT); [2])	IC50 (EGFR del19/C797S; [3])	IC50 (EGFR del19/C797S; [4])	IC50 (EGFR L858R/C797S; [5])	IC50 (EGFR L858R/C797S; [6])	IC50 (EGFR L858R/T790M/C797S; [7])	IC50 (EGFR L858R/T790M/C797S; [8])	IC50 (EGFR del19/T790M/C797S; [9])	IC50 (EGFR del19/T790M/C797S; [10])	Compound
> 10000 nM	46 nM	10.5 nM	6 nM	406 nM	11.2 nM	1 nM	0.2 nM	0.7 nM	0.4 nM	C[C@]1(O)CC[C@@H](Nc2cc(Nc3nc(-c4cnn(S(=O)(=O)C5CC5)c4)ncc3F)ncc2-c2ccn(C(F)F)n2)CC1 [Example 316, (1s,4s)-4-((2-((2-(1-(Cyclopropylsulfonyl)-1H-pyrazol-4-yl)-5-fluoropyrimidin-4-yl)amino)-5-(1-(difluoromethyl)-1H-pyrazol-3-yl)pyridin-4-yl)amino)-1-methylcyclohexan-1-ol]
> 10000 nM	37.3 nM	2 nM	2.4 nM	11.5 nM	3.1 nM	0.7 nM	0.3 nM	0.5 nM	0.3 nM	Cn1ccc(-c2cnc(Nc3ccnc(-c4cnn(S(=O)(=O)C5CC5)c4)n3)cc2N[C@H]2CC[C@](O)(C(F)F)CC2)n1 [Example 231, (1s,4s)-4-((2-((2-(1-(Cyclopropylsulfonyl)-1H-pyrazol-4-yl)pyrimidin-4-yl)amino)-5-(1-methyl-1H-pyrazol-3-yl)pyridin-4-yl)amino)-1-(difluoromethyl)cyclohexan-1-ol]
244 nM		0.9 nM	0.8 nM	2.2 nM	0.4 nM	0.6 nM	0.4 nM	1.4 nM	1.7 nM	Cn1nc(-c2cnc(Nc3ccnc(-c4cnn(S(=O)(=O)C5CC5)c4)n3)cc2N[C@H]2CC[C@@H](CN3CCC3)CC2)cc1C(F)(F)F [Example 264, N^4-((1s,4s)-4-(Azetidin-1-ylmethyl)cyclohexyl)-N^2-(2-(1-(cyclopropylsulfonyl)-1H-pyrazol-4-yl)pyrimidin-4-yl)-5-(1-methyl-5-(trifluoromethyl)-1H-pyrazol-3-yl)pyridine-2,4-diamine]
> 10000 nM	1610 nM	74.5 nM	39.9 nM	627 nM	146 nM	12.6 nM		2.1 nM		CS(=O)(=O)c1ccccc1Nc1nccc(Nc2cc(N[C@H]3CC[C@@](C)(O)CC3)c(-c3ccn(C(F)F)n3)cn2)n1 [Example 313, (1s,4s)-4-((5-(1-(Difluoromethyl)-1H-pyrazol-3-yl)-2-((2-((2-(methylsulfonyl)phenyl)amino)pyrimidin-4-yl)amino)pyridin-4-yl)amino)-1-methylcyclohexan-1-ol]
> 10000 nM	12.9 nM	6.5 nM	5.5 nM	33.5 nM	18.5 nM	6.5 nM	1.7 nM	3.9 nM	3.7 nM	Cn1nc(-c2cnc(Nc3ccnc(-c4cnn(S(=O)(=O)C5CC5)c4)n3)cc2N[C@H]2CC[C@@H](C(C)(C)O)CC2)cc1C(F)(F)F [Example 254, 2-((1s,4s)-4-((2-((2-(1-(Cyclopropylsulfonyl)-1H-pyrazol-4-yl)pyrimidin-4-yl)amino)-5-(1-methyl-5-(trifluoromethyl)-1H-pyrazol-3-yl)pyridin-4-yl)amino)cyclohexyl)propan-2-ol]

Continued, compound first:

Compound	IC50 (EGFR wildtype (WT); [1])	IC50 (EGFR wildtype (WT); [2])	IC50 (EGFR del19/C797S; [3])	IC50 (EGFR del19/C797S; [4])	IC50 (EGFR L858R/C797S; [5])	IC50 (EGFR L858R/C797S; [6])	IC50 (EGFR L858R/T790M/C797S; [7])	IC50 (EGFR L858R/T790M/C797S; [8])	IC50 (EGFR del19/T790M/C797S; [9])	IC50 (EGFR del19/T790M/C797S; [10])
Cn1ccc(-c2cnc(Nc3ccnc(-c4cnn(S(=O)(=O)C5CC5)c4)n3)cc2NC[C@H]2CC[C@@H](O)C2)n1 [Example 118, (1R,3S)-3-(((2-((2-(1-(Cyclopropylsulfonyl)-1H-pyrazol-4-yl)pyrimidin-4-yl)amino)-5-(1-methyl-1H-pyrazol-3-yl)pyridin-4-yl)amino)methyl)cyclopentan-1-ol]	1320 nM	4.9 nM	0.2 nM	0.3 nM	3.6 nM	0.2 nM	0.3 nM	0.1 nM	0.2 nM	0.2 nM
C[C@]1(O)CC[C@@H](Nc2cc(Nc3ccnc(-c4cnn(S(=O)(=O)C5CC5)c4)n3)ncc2-c2cc3n(n2)CCCC3)CC1 [Example 59, (1s,4s)-4-((2-((2-(1-(Cyclopropylsulfonyl)-1H-pyrazol-4-yl)pyrimidin-4-yl)amino)-5-(4,5,6,7-tetrahydropyrazolo[1,5-a]pyridin-2-yl)pyridin-4-yl)amino)-1-methylcyclohexan-1-ol]	368 nM		1.9 nM	1 nM		0.6 nM	0.6 nM	0.3 nM	0.8 nM	0.7 nM
O=S(=O)(C1CC1)n1cc(-c2nccc(Nc3cc(NC4CCCC(NCC(F)F)C4)c(-c4ccn(C(F)F)n4)cn3)n2)cn1 (centres unmarked) [Example 191, N^2-(2-(1-(Cyclopropylsulfonyl)-1H-pyrazol-4-yl)pyrimidin-4-yl)-N^4-(3-((2,2-difluoroethyl)amino)cyclohexyl)-5-(1-(difluoromethyl)-1H-pyrazol-3-yl)pyridine-2,4-diamine]	> 10000 nM		35.5 nM		1400 nM		2.4 nM		1.7 nM	
Cn1ccc(-c2cnc(Nc3ccnc(-c4cnn(S(=O)(=O)C5CC5)c4)n3)cc2N[C@H]2CC[C@@H](O)CC2)n1 [Example 79, (1s,4s)-4-((2-((2-(1-(Cyclopropylsulfonyl)-1H-pyrazol-4-yl)pyrimidin-4-yl)amino)-5-(1-methyl-1H-pyrazol-3-yl)pyridin-4-yl)amino)cyclohexan-1-ol]	58.1 nM		0.7 nM		0.8 nM		0.5 nM		0.5 nM	
Cn1ccc(-c2cnc(Nc3ccnc(-c4cnn(S(=O)(=O)C5CC5)c4)n3)cc2NC2CCC(F)(CO)CC2)n1 (centres unmarked) [Example 222, (4-((2-((2-(1-(Cyclopropylsulfonyl)-1H-pyrazol-4-yl)pyrimidin-4-yl)amino)-5-(1-methyl-1H-pyrazol-3-yl)pyridin-4-yl)amino)-1-fluorocyclohexyl)methanol]	> 10000 nM	14.9 nM	0.9 nM	1.1 nM	18.8 nM	3.3 nM	0.2 nM	0.1 nM	0.2 nM	0.3 nM
O=S(=O)(C1CC1)n1cc(-c2nccc(Nc3cc(NC[C@H]4CC[C@H](O)CC4)c(-c4ccn(C(F)F)n4)cn3)n2)cn1 [Example 31, (1r,4r)-4-(((2-((2-(1-(Cyclopropylsulfonyl)-1H-pyrazol-4-yl)pyrimidin-4-yl)amino)-5-(1-(difluoromethyl)-1H-pyrazol-3-yl)pyridin-4-yl)amino)methyl)cyclohexan-1-ol]	> 10000 nM	10.5 nM	1.3 nM	0.5 nM	18.7 nM	1.3 nM		0.2 nM	1.3 nM	0.4 nM
O=S(=O)(C1CC1)n1cc(-c2nccc(Nc3cc(NCC4(CO)COC4)c(-c4ccn(C(F)F)n4)cn3)n2)cn1 [Example 197, (3-(((2-((2-(1-(Cyclopropylsulfonyl)-1H-pyrazol-4-yl)pyrimidin-4-yl)amino)-5-(1-(difluoromethyl)-1H-pyrazol-3-yl)pyridin-4-yl)amino)methyl)oxetan-3-yl)methanol]	> 10000 nM	7.9 nM	2.2 nM	1.1 nM	70 nM	2.1 nM	0.3 nM	0.1 nM	0.2 nM	0.1 nM
